Results from US12697330B2, “Therapeutic methods using vadadustat” (Akebia Therapeutics, Inc., priority 2021, dated 2026).

Assays:
erythropoietin (EPO) [1] = assay: Phase 2 study, Main Study: pharmacodynamics, Baseline-Unadjusted serum EPO concentration; type: in vivo, human
Protocol: (§1) PK/PD Endpoints. An exposure-response analysis of vadadustat and PD measures were conducted as deemed appropriate. The PK parameters included (but were not limited to) the following: area under concentration-time curve from dosing to last measurable concentration (AUClast), area under concentration-time curve from dosing to infinity (AUCinf), Cmax, apparent total body clearance (CL/F), apparent volume of distribution (Vd/F), and terminal half-life (t1/2). The PD parameters included (but were not limited to) the following: EPO, reticulocytes, iron, ferritin, TIBC, and hepcidin.
(§2) PK population: included all randomized subjects who received study drug (vadadustat or epoetin alfa) and had enough drug concentrations to estimate AUC and Cmax. Analysis of this population was based on the dose amount taken at the date of PK sampling for the vadadustat group.
(§3) PD parameters for serum EPO concentration are presented by epoetin alfa stratification for vadadustat treatment groups in Table 7, Table 8a and Table 8b (baseline-unadjusted) and Table 9, Table 10a and Table 10b (baseline-adjusted).

erythropoietin (EPO) [2] = assay: Phase 2 study, Main Study: pharmacodynamics, Baseline-Adjusted serum EPO concentration; type: in vivo, human
Protocol: as §1, §2, §3

[3] = Vada 750 mg, Week 11, Low Epoetin Alfa Stratum ≤90 U/kg/week
[4] = Vada 750 mg, Week 13, High Epoetin Alfa Stratum >90 to <300 U/kg/week
[5] = Vada 750 mg, Week 13, Low Epoetin Alfa Stratum ≤90 U/kg/week
[6] = Vada 900 mg, Week 11, High Epoetin Alfa Stratum >90 to <300 U/kg/week
[7] = Vada 900 mg, Week 11, Low Epoetin Alfa Stratum ≤90 U/kg/week
[8] = Vada 150 mg, Week 11, High Epoetin Alfa Stratum >90 to <300 U/kg/week
[9] = Vada 150 mg, Week 11, Low Epoetin Alfa Stratum ≤90 U/kg/week
[10] = Vada 300 mg, Week 1 + 1, High Epoetin Alfa Stratum >90 to <300 U/kg/week
[11] = Vada 300 mg, Week 1 + 1, Low Epoetin Alfa Stratum ≤90 U/kg/week
[12] = Vada 300 mg, Week 1, High Epoetin Alfa Stratum >90 to <300 U/kg/week
[13] = Vada 300 mg, Week 1, Low Epoetin Alfa Stratum ≤90 U/kg/week
[14] = Vada 300 mg, Week 11, High Epoetin Alfa Stratum >90 to <300 U/kg/week
[15] = Vada 300 mg, Week 11, Low Epoetin Alfa Stratum ≤90 U/kg/week
[16] = Vada 450 mg, Week 1 + 1, High Epoetin Alfa Stratum >90 to <300 U/kg/week
[17] = Vada 450 mg, Week 1 + 1, Low Epoetin Alfa Stratum ≤90 U/kg/week
[18] = Vada 450 mg, Week 1, High Epoetin Alfa Stratum >90 to <300 U/kg/week
[19] = Vada 450 mg, Week 1, Low Epoetin Alfa Stratum ≤90 U/kg/week
[20] = Vada 450 mg, Week 11, High Epoetin Alfa Stratum >90 to <300 U/kg/week
[21] = Vada 450 mg, Week 11, Low Epoetin Alfa Stratum ≤90 U/kg/week
[22] = Vada 450 mg, Week 13, Low Epoetin Alfa Stratum ≤90 U/kg/week
[23] = Vada 600 mg, Week 1 + 1, High Epoetin Alfa Stratum >90 to <300 U/kg/week
[24] = Vada 600 mg, Week 1, High Epoetin Alfa Stratum >90 to <300 U/kg/week
[25] = Vada 600 mg, Week 11, High Epoetin Alfa Stratum >90 to <300 U/kg/week
[26] = Vada 600 mg, Week 11, Low Epoetin Alfa Stratum ≤90 U/kg/week
[27] = Vada 600 mg, Week 13, High Epoetin Alfa Stratum >90 to <300 U/kg/week
[28] = Vada 600 mg, Week 13, Low Epoetin Alfa Stratum ≤90 U/kg/week
[29] = Vada 750 mg, Week 11, High Epoetin Alfa Stratum >90 to <300 U/kg/week

In the case of `O=C(O)CNC(=O)c1ncc(-c2cccc(Cl)c2)cc1O` [Compound 1, {[5-(3-chlorophenyl)-3-hydroxypyridine-2-carbonyl]amino}acetic acid], the “Baseline-Unadjusted serum EPO AUC0-5, Geometric Mean” value (erythropoietin (EPO) [1]; [3]) is reported as 41.3 µg·h/mL, the “Baseline-Unadjusted serum EPO Cmax, Geometric Mean” value (“Baseline-Unadjusted serum EPO Cmax” below) (erythropoietin (EPO) [1]; [3]) is reported as 12.5 µg/mL and the “Baseline-Unadjusted serum EPO Tmax, Median” value (erythropoietin (EPO) [1]; [3]) is reported as 4.50 h. For the same compound, the “Baseline-Unadjusted serum EPO AUC0-5, Geometric Mean” value (erythropoietin (EPO) [1]; [4]) was 42.9 µg·h/mL, the “Baseline-Unadjusted serum EPO Cmax” value (erythropoietin (EPO) [1]; [4]) was 14.1 µg/mL and the “Baseline-Unadjusted serum EPO Tmax, Median” value (erythropoietin (EPO) [1]; [4]) was 0 h. The “Baseline-Unadjusted serum EPO AUC0-5, Geometric Mean” value (erythropoietin (EPO) [1]; [5]) was 40.8 µg·h/mL, the “Baseline-Unadjusted serum EPO Cmax” value (erythropoietin (EPO) [1]; [5]) was 13.2 µg/mL and the “Baseline-Unadjusted serum EPO Tmax, Median” value (erythropoietin (EPO) [1]; [5]) was 4.50 h. The “Baseline-Unadjusted serum EPO AUC0-5, Geometric Mean” value (erythropoietin (EPO) [1]; [6]) was 96.5 µg·h/mL, the “Baseline-Unadjusted serum EPO Cmax” value (erythropoietin (EPO) [1]; [6]) was 30.2 µg/mL and the “Baseline-Unadjusted serum EPO Tmax, Median” value (erythropoietin (EPO) [1]; [6]) was 0 h. The “Baseline-Unadjusted serum EPO AUC0-5, Geometric Mean” value (erythropoietin (EPO) [1]; [7]) was 81.0 µg·h/mL, the “Baseline-Unadjusted serum EPO Cmax” value (erythropoietin (EPO) [1]; [7]) was 24.4 µg/mL and the “Baseline-Unadjusted serum EPO Tmax, Median” value (erythropoietin (EPO) [1]; [7]) was 0 h. For the same compound, the “Baseline-Adjusted Serum EPO Cmax, Geometric Mean” value (“Baseline-Adjusted Serum EPO Cmax” below) (erythropoietin (EPO) [2]; [8]) was 4.29 µg/mL, the “Baseline-Adjusted Serum EPO Tmax, Median” value (erythropoietin (EPO) [2]; [8]) was 0 h and the “Baseline-Adjusted Serum EPO Cmax” value (erythropoietin (EPO) [2]; [9]) was 4.32 µg/mL. For the same compound, the “Baseline-Adjusted Serum EPO Tmax, Median” value (erythropoietin (EPO) [2]; [9]) was 4.78 h, the “Baseline-Adjusted Serum EPO Cmax” value (erythropoietin (EPO) [2]; [10]) was 7.2 µg/mL and the “Baseline-Adjusted Serum EPO Tmax, Median” value (erythropoietin (EPO) [2]; [10]) was 0 h. The “Baseline-Adjusted Serum EPO Cmax” value (erythropoietin (EPO) [2]; [11]) was 10.1 µg/mL, the “Baseline-Adjusted Serum EPO Tmax, Median” value (erythropoietin (EPO) [2]; [11]) was 2.00 h and the “Baseline-Adjusted Serum EPO Cmax” value (erythropoietin (EPO) [2]; [12]) was 9.1 µg/mL. The “Baseline-Adjusted Serum EPO Tmax, Median” value (erythropoietin (EPO) [2]; [12]) was 0 h, the “Baseline-Adjusted Serum EPO Cmax” value (erythropoietin (EPO) [2]; [13]) was 9.1 µg/mL and the “Baseline-Adjusted Serum EPO Tmax, Median” value (erythropoietin (EPO) [2]; [13]) was 4.50 h. The “Baseline-Adjusted Serum EPO Cmax” value (erythropoietin (EPO) [2]; [14]) was 33.8 µg/mL, the “Baseline-Adjusted Serum EPO Tmax, Median” value (erythropoietin (EPO) [2]; [14]) was 0 h and the “Baseline-Adjusted Serum EPO Cmax” value (erythropoietin (EPO) [2]; [15]) was 14.5 µg/mL. For the same compound, the “Baseline-Adjusted Serum EPO Tmax, Median” value (erythropoietin (EPO) [2]; [15]) was 1.00 h, the “Baseline-Adjusted Serum EPO Cmax” value (erythropoietin (EPO) [2]; [16]) was 10.0 µg/mL and the “Baseline-Adjusted Serum EPO Tmax, Median” value (erythropoietin (EPO) [2]; [16]) was 0 h. For the same compound, the “Baseline-Adjusted Serum EPO Cmax” value (erythropoietin (EPO) [2]; [17]) was 11.8 µg/mL, the “Baseline-Adjusted Serum EPO Tmax, Median” value (erythropoietin (EPO) [2]; [17]) was 4.50 h and the “Baseline-Adjusted Serum EPO Cmax” value (erythropoietin (EPO) [2]; [18]) was 14.0 µg/mL. For the same compound, the “Baseline-Adjusted Serum EPO Tmax, Median” value (erythropoietin (EPO) [2]; [18]) was 4.50 h, the “Baseline-Adjusted Serum EPO Cmax” value (erythropoietin (EPO) [2]; [19]) was 18.1 µg/mL and the “Baseline-Adjusted Serum EPO Tmax, Median” value (erythropoietin (EPO) [2]; [19]) was 1.75 h. For the same compound, the “Baseline-Adjusted Serum EPO Cmax” value (erythropoietin (EPO) [2]; [20]) was 15.5 µg/mL, the “Baseline-Adjusted Serum EPO Tmax, Median” value (erythropoietin (EPO) [2]; [20]) was 0.88 h and the “Baseline-Adjusted Serum EPO Cmax” value (erythropoietin (EPO) [2]; [21]) was 8.00 µg/mL. The “Baseline-Adjusted Serum EPO Tmax, Median” value (erythropoietin (EPO) [2]; [21]) was 2.08 h, the “Baseline-Adjusted Serum EPO Cmax” value (erythropoietin (EPO) [2]; [22]) was 11.4 µg/mL and the “Baseline-Adjusted Serum EPO Tmax, Median” value (erythropoietin (EPO) [2]; [22]) was 3.94 h. The “Baseline-Adjusted Serum EPO Cmax” value (erythropoietin (EPO) [2]; [23]) was 18.9 µg/mL, the “Baseline-Adjusted Serum EPO Tmax, Median” value (erythropoietin (EPO) [2]; [23]) was 2.47 h and the “Baseline-Adjusted Serum EPO Cmax” value (erythropoietin (EPO) [2]; [24]) was 26.0 µg/mL. The “Baseline-Adjusted Serum EPO Tmax, Median” value (erythropoietin (EPO) [2]; [24]) was 0 h, the “Baseline-Adjusted Serum EPO Cmax” value (erythropoietin (EPO) [2]; [25]) was 14.6 µg/mL and the “Baseline-Adjusted Serum EPO Tmax, Median” value (erythropoietin (EPO) [2]; [25]) was 0.92 h. For the same compound, the “Baseline-Adjusted Serum EPO Cmax” value (erythropoietin (EPO) [2]; [26]) was 13.7 µg/mL, the “Baseline-Adjusted Serum EPO Tmax, Median” value (erythropoietin (EPO) [2]; [26]) was 4.00 h and the “Baseline-Adjusted Serum EPO Cmax” value (erythropoietin (EPO) [2]; [27]) was 173.0 µg/mL. For the same compound, the “Baseline-Adjusted Serum EPO Tmax, Median” value (erythropoietin (EPO) [2]; [27]) was 4.63 h, the “Baseline-Adjusted Serum EPO Cmax” value (erythropoietin (EPO) [2]; [28]) was 8.1 µg/mL and the “Baseline-Adjusted Serum EPO Tmax, Median” value (erythropoietin (EPO) [2]; [28]) was 7.08 h. The “Baseline-Adjusted Serum EPO Cmax” value (erythropoietin (EPO) [2]; [29]) was 14.8 µg/mL, the “Baseline-Adjusted Serum EPO Tmax, Median” value (erythropoietin (EPO) [2]; [29]) was 4.75 h and the “Baseline-Adjusted Serum EPO Cmax” value (erythropoietin (EPO) [2]; [3]) was 3.91 µg/mL. For the same compound, the “Baseline-Adjusted Serum EPO Tmax, Median” value (erythropoietin (EPO) [2]; [3]) was 4.50 h, the “Baseline-Adjusted Serum EPO Cmax” value (erythropoietin (EPO) [2]; [4]) was 6.8 µg/mL and the “Baseline-Adjusted Serum EPO Tmax, Median” value (erythropoietin (EPO) [2]; [4]) was 0 h. For the same compound, the “Baseline-Adjusted Serum EPO Cmax” value (erythropoietin (EPO) [2]; [5]) was 7.7 µg/mL, the “Baseline-Adjusted Serum EPO Tmax, Median” value (erythropoietin (EPO) [2]; [5]) was 4.50 h and the “Baseline-Adjusted Serum EPO Cmax” value (erythropoietin (EPO) [2]; [6]) was 21.4 µg/mL. For the same compound, the “Baseline-Adjusted Serum EPO Tmax, Median” value (erythropoietin (EPO) [2]; [6]) was 0 h, the “Baseline-Adjusted Serum EPO Cmax” value (erythropoietin (EPO) [2]; [7]) was 10.8 µg/mL and the “Baseline-Adjusted Serum EPO Tmax, Median” value (erythropoietin (EPO) [2]; [7]) was 0 h.
